Measurements: PMC5447756, “Identification of Epigallocatechin-3- Gallate as an Inhibitor of Phosphoglycerate Mutase 1” (Frontiers in Pharmacology, 2017)

Tests used:
PGAM1 R10K mutant = test system: T1, PGAM1 R10K mutant; assay: Inhibition of PGAM1 R10K mutant; format: biochemical, human; details: compared to the wild-type PGAM1
T1 construct: His; made in house; host or cells: E. coli BL21
Experimental: (§1) BL21 competent cells were transformed by His-tagged pETDuet-1-PGAM1 (wildtype or mutants) or His-tagged pETDuet-1-PHGDH constructs. Cells were collected, resuspended in buffer A (20 mM Tris, 200 mM NaCl, 20 mM imidazole, pH 8.0) and sonicated on ice until complete lysis. His-tagged PGAM1, PGAM1 mutants or PHGDH recombinant proteins in supernatant were purified using Ni-NTA beads (QIAGEN), washed with buffer A, and eluted with buffer B (20 mM Tris, 200 mM NaCl, 250 mM imidazole, pH 8.0). All obtained proteins were stored at -80°C.
(§2) Recombinant PGAM1 enzymatic activity was measured by a multiple enzymes coupled assay. In brief, assay was conducted in 10 μL buffer (50 mM HEPES, PH 7.5, 10 mM MgCl2) containing 5 μL 1 mg/ml recombinant PGAM1 enzyme, 2.5 μL test compound, 2.5 μL 1 mM ADP, 1 mM 3-PG, 0.5 units/ml enolase (Sigma–Aldrich) and 0.5 units/mL recombinant pyruvate kinase M1 (Sigma–Aldrich). The production of ATP was measured by Kinase-Glo® Max Luminescent Kinase Assay (Promega).
(§3) H186R was a well-validated catalytically dead mutant of PGAM1 ([Zhang et al., 2016]; [Qu et al., 2017]), which was used as a control (Figure 2B).

PGAM1 R191K mutant = test system: T2, PGAM1 R191K mutant; assay: Inhibition of PGAM1 R191K mutant; format: biochemical, human; details: compared to the wild-type PGAM1
T2 construct: His; made in house; host or cells: E. coli BL21
Experimental: as §1, §2, §3

PGAM1 R116K mutant = test system: T3, PGAM1 R116K mutant; assay: Inhibition of PGAM1 R116K mutant; format: biochemical, human; details: compared to the wild-type PGAM1
T3 construct: His; made in house; host or cells: E. coli BL21
Experimental: as §1, §2, §3

human xenograft tumors = test system: human xenograft tumors; design: method as in Hitosugi et al., 2012; details: mice models carrying human xenograft tumors; ref Hitosugi et al., 2012; cited from earlier work
NCI-H1299 cells [1] = assay: Intracellular 2-PG measurement; format: cell-based, human; details: NCI-H1299, 24 h, free compound
Experimental: A 2-Phosphoglycerate Colorimetric/Fluorometric Assay kit (BioVision) was used to measure cellular 2-PG level. Cells were collected after exposure to compounds for 24 h, washed with PBS, and lysed with ice-cold 2-PG assay buffer. […] The samples were measured by using EnVision® at Ex 535 Em 587 nm.

[2] = test system: T4, mutant isocitrate dehydrogenase 1 (IDH1 R132H); assay: IDH enzymatic assay; format: biochemical; details: at a concentration up to 100 μM
T4 construct: purchased Cayman Chemical
Experimental: Assays were conducted in 10 μL buffer [150 mM NaCl, 20 mM Tris pH7.5, 10 mM MgCl2, 0.05% (w/v) bovine serum albumin] containing 2.5 μL of test compound, 5 μL enzyme solution (10 ng/μL mutant IDH, Cayman Chemical) and 2.5 μL substrate solution (1 mM α-KG, 4 μM NADPH) added into a 384-well plate followed by incubation at room temperature for 60 min. After incubation, NADPH remaining amount was measured by adding 5 μL buffer containing 5 μM resazurin and 0.01 unit diaphorase and incubated at room temperature for 10 min. The plate was read using EnVision (Perkin Elmer) at Ex 540 Em 590 nm.

Caco-2 monolayer = Caco-2 monolayer permeability; format: in vitro ADME; details: result in words
Experimental: The solubility of compounds was measured by Nephelometry using the NEPHELOstar plus apparatus (BMG Lab Technologies). Caco-2 monolayer was cultivated on permeable support. In details, after 21-day culture, the integrity of the cell monolayer of every well was verified by measuring the transepithelial electrical resistance (TEER). The diluted solution was added to corresponding well and the plate was incubated at 37°C for 1.5 h. 100 μL samples were collected from both apical and basolateral sides at the initial and end time points and the sample concentrations were measured for the evaluation of mass balance.

PGAM1 [3] = biological target: T5, PGAM1 (Homo sapiens, UniProt P18669); assay: PGAM1 coupled enzymatic assay (PKM1/enolase, Kinase-Glo); format: biochemical; details: recombinant PGAM1, coupled enzyme assay; read-out: IC50, inhibition of PGAM1
T5 construct: His; made in house; host or cells: E. coli BL21
T5 sequence (P18669 whole entry): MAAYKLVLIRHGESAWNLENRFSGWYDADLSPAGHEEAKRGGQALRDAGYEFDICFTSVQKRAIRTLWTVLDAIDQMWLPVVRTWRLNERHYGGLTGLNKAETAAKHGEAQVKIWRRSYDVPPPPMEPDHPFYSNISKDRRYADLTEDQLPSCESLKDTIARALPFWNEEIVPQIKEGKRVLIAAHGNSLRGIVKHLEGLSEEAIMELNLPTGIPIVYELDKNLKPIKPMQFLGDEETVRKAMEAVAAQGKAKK
Source text: To identify new PGAM1 inhibitors, we utilized a coupled PGAM1 and pyruvate kinase isozymes M1 (PKM1)/enolase biochemical assay followed by a counter screen to exclude compounds with activity toward PKM1 or enolase. […] Using these biochemical assays, we screened a chemical library composed of 800 purified compounds derived from natural products.

PGAM1 [4] = biological target: T5, PGAM1; assay: Surface plasmon resonance binding to PGAM1; details: SPR, 25°C, 1:1 Langmuir binding model; read-out: dissociation constant (Kd-value)
Experimental: Surface plasmon resonance (SPR) assay was carried out with a ProteOn XPR36 instrument (Bio-Rad). PGAM1 was coupled to the surface of a GLH sensor chip according to the manufacturer’s instructions. […] Resonance units (RU) changes represent the binding condition. The dissociation constant (Kd) was calculated using the ProteOn Manager 3.1 software program by fitting to a 1:1 Langmuir binding model.

NCI-H1299 cells [5] = assay: Cell proliferation assay, NCI-H1299; format: cell-based, human
Experimental: Cells were seeded into a 6-well plate. […] The cells were harvested after incubation for 72 h and the proliferation inhibition rate was calculated by cell number counting (Beckman).

[6] = test system: T6, phosphoglycerate dehydrogenase (PHGDH); assay: PHGDH enzymatic assay; format: biochemical; details: at a concentration up to 100 μM
T6 construct: His; made in house; host or cells: E. coli BL21
Experimental: Assays were conducted in 10 μL buffer (200 mM Tris-HCl pH8.1, 400 mM KCl, 2 mM GSH, and 10 mM EDTA) containing recombinant PHGDH, 0.6 mM NAD, 1 mM 3-PG. The NADH product can be measured by diaphorase/rezasurin system.

hexokinase 2 (HK2) = test system: hexokinase 2 (HK2); design: method as in Gao et al., 2015; details: human tongue carcinoma; ref Gao et al., 2015; cited from earlier work
PGAM1 [7] = biological target: T5, PGAM1; assay: Substrate 3-PG competition, Lineweaver-Burk plot analysis; format: biochemical

Compound	inhibitory activity toward R10K mutant (PGAM1 R10K mutant)	inhibitory activity toward R191K mutant (PGAM1 R191K mutant)	inhibitory activity toward R116K mutant (PGAM1 R116K mutant)	anticancer properties in xenograft mice (human xenograft tumors)	concentration giving apparent inhibition of intracellular 2-PG level (NCI-H1299 cells [1])	inhibition of mutant IDH1 [2]	membrane permeability (Caco-2 monolayer)	IC50 (PGAM1 [3])	Kd (PGAM1 [4])	cell growth (NCI-H1299 cells [5]; NCI-H1299, 72 h, cell counting)	effect of stable knockdown of PGAM1 on growth inhibition (NCI-H1299 cells [5]; PGAM1 stable knockdown NCI-H1299 (shPGAM1) vs scramble, 72 h)	inhibition of PHGDH [6]	expression of hexokinase 2 (HK2) (hexokinase 2 (HK2))	pattern of inhibition with substrate 3-PG (PGAM1 [7])
O=C1c2ccccc2C(=O)c2c1cc(S(=O)(=O)Nc1ccc(C(F)(F)F)cc1)c(O)c2O [PGMI-004A, reference compound]	only slightly affect the activity	only slightly affect the activity	only slightly affect the activity	exhibited evident anticancer properties	20 µM	–	–	–	–	–	–	–	–	–
(-)-Epigallocatechin-3-gallate [EGCG]	lost its inhibitory activity	lost its inhibitory activity	lost its inhibitory activity	–	80 µM	did not inhibit	extremely low membrane permeability	490 ± 170 nM	780 nM	dose-dependently inhibited cell growth	partially rescued	did not inhibit	inhibits the expression	non-competitive
